Test results reported in ChEMBL document CHEMBL3588838, “A full conformational characterization of antiandrogen cortexolone-17-propionate and related compounds through theoretical calculations and nuclear magnetic resonance spectroscopy” (Medchemcomm, 2014).
Each block holds one compound with its values, some of them ahead of it. Activity calls are given as the source filed them. The calls are words filed in the database; no cut-off is given here.

Tests used:
Syrian golden hamster [1] = assay: Antiandrogenic activity in female Syrian golden hamsters assessed as inhibition of testosterone propionate-induced flank organ enlargement at 400 ug per animal, topically relative to untreated control; format: functional, Mesocricetus auratus
Plasma = assay: Drug metabolism in rat plasma assessed as cortexolone-21-propionate formation after up to 8 hrs by HPLC analysis in presence of 50 ug/ml dichlofvos; format: ADME, cell-free
Syrian golden hamster [2] = assay: Antiandrogenic activity in female Syrian golden hamsters assessed as inhibition of testosterone propionate-induced flank organ enlargement at 100 ug per animal, topically relative to untreated control; format: functional, Mesocricetus auratus
Syrian golden hamster [3] = assay: Antiandrogenic activity in female Syrian golden hamsters assessed as inhibition of testosterone propionate-induced flank organ enlargement at 200 ug per animal, topically relative to untreated control; format: functional, Mesocricetus auratus
[4] = target: Steroid 5-alpha-reductase (Homo sapiens) (UniProt P18405+P31213+Q9H8P0); assay: Inhibition of 5alpha-reductase in human epidermis assessed as inhibition of [14C]testosterone to DHT after 24 hrs; format: protein assay
Androgen receptor = target: T1, Androgen receptor (Homo sapiens, UniProt P10275); assay: Displacement of [3H]methyltrienolone from androgen receptor in human prostate cancer cells; format: cell-based, Cancer cell lines
T1 sequence (P10275 whole entry): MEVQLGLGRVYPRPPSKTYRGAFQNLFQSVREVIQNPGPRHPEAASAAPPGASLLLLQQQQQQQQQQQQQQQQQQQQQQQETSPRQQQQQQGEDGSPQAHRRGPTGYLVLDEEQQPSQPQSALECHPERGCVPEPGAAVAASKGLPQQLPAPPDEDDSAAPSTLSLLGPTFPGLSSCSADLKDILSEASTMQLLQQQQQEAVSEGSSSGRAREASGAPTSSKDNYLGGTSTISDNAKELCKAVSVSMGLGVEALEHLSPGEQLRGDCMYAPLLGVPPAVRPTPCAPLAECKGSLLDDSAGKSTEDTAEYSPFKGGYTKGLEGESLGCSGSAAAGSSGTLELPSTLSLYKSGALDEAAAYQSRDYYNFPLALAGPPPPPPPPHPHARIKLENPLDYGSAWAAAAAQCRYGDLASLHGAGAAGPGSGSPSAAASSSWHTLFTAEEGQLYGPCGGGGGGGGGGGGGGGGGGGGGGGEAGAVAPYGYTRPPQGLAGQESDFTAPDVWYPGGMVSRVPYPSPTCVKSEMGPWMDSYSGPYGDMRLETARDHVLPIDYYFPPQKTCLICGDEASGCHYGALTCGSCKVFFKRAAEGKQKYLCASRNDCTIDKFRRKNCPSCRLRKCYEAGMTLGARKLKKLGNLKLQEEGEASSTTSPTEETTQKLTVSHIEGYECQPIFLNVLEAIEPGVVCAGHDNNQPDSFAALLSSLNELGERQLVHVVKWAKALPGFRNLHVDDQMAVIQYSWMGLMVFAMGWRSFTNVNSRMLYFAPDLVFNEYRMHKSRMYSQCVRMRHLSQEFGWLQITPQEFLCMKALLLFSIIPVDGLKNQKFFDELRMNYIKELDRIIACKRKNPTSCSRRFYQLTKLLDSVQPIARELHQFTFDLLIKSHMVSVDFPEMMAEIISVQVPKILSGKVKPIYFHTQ

Rattus norvegicus [5] = assay: Antiandrogenic activity in sc dosed male castrated Wistar rat assessed as inhibition of testosterone propionate-induced ventral prostate gland organ effect; format: functional, organism-based
Rattus norvegicus [6] = assay: Antiandrogenic activity in sc dosed male castrated Wistar rat assessed as inhibition of testosterone propionate-induced seminal vesicles gland organ effect; format: functional, organism-based
Rattus norvegicus [7] = assay: Antiandrogenic activity in sc dosed male castrated Wistar rat assessed as inhibition of testosterone propionate-induced preputial gland organ effect; format: functional, organism-based
Rattus norvegicus [8] = assay: Glucocorticoid activity in male castrated Wistar rat assessed as reduction in adrenal weight at 100 mg/kg, sc; format: functional, organism-based
Rattus norvegicus [9] = assay: Glucocorticoid activity in male castrated Wistar rat assessed as reduction in thymus weight at 100 mg/kg, sc; format: functional, organism-based
[10] = Drug metabolism in rat plasma assessed as compound remaining after 0 mins by HPLC analysis; format: ADME, cell-free; conditions: read-out: Drug metabolism
[11] = Drug metabolism in rat plasma assessed as compound remaining after 5 mins by HPLC analysis; format: ADME, cell-free; conditions: read-out: Drug metabolism
[12] = Drug metabolism in rat plasma assessed as compound remaining after 15 mins by HPLC analysis; format: ADME, cell-free; conditions: read-out: Drug metabolism
[13] = Drug metabolism in rat plasma assessed as compound remaining after 30 mins by HPLC analysis; format: ADME, cell-free; conditions: read-out: Drug metabolism
[14] = Drug metabolism in rat plasma assessed as compound remaining after 1 hr by HPLC analysis; format: ADME, cell-free; conditions: read-out: Drug metabolism
[15] = Drug metabolism in rat plasma assessed as compound remaining after 2 hrs by HPLC analysis; format: ADME, cell-free; conditions: read-out: Drug metabolism
[16] = Drug metabolism in rat plasma assessed as compound remaining after 4 hrs by HPLC analysis; format: ADME, cell-free; conditions: read-out: Drug metabolism
[17] = Drug metabolism in rat plasma assessed as compound remaining after 8 hrs by HPLC analysis; format: ADME, cell-free; conditions: read-out: Drug metabolism
[18] = Drug metabolism in human plasma assessed as compound remaining after 30 mins by HPLC analysis; format: ADME, cell-free; conditions: read-out: Drug metabolism
[19] = Drug metabolism in human plasma assessed as compound remaining after 1 hr by HPLC analysis; format: ADME, cell-free; conditions: read-out: Drug metabolism
[20] = Drug metabolism in human plasma assessed as compound remaining after 2 hrs by HPLC analysis; format: ADME, cell-free; conditions: read-out: Drug metabolism
[21] = Drug metabolism in human plasma assessed as compound remaining after 4 hrs by HPLC analysis; format: ADME, cell-free; conditions: read-out: Drug metabolism
[22] = Drug metabolism in human plasma assessed as compound remaining after 6 hrs by HPLC analysis; format: ADME, cell-free; conditions: read-out: Drug metabolism
[23] = Drug metabolism in human plasma assessed as compound remaining after 0 mins by HPLC analysis; format: ADME, cell-free; conditions: read-out: Drug metabolism
[24] = Drug metabolism in rat skin homogenate assessed as compound remaining after 5 mins by HPLC analysis; format: ADME, tissue-based, Zone of skin; conditions: read-out: Drug metabolism
[25] = Drug metabolism in rat skin homogenate assessed as compound remaining after 15 mins by HPLC analysis; format: ADME, tissue-based, Zone of skin; conditions: read-out: Drug metabolism
[26] = Drug metabolism in rat skin homogenate assessed as compound remaining after 30 mins by HPLC analysis; format: ADME, tissue-based, Zone of skin; conditions: read-out: Drug metabolism
[27] = Drug metabolism in rat skin homogenate assessed as compound remaining after 1 hr by HPLC analysis; format: ADME, tissue-based, Zone of skin; conditions: read-out: Drug metabolism
[28] = Drug metabolism in rat skin homogenate assessed as compound remaining after 2 hrs by HPLC analysis; format: ADME, tissue-based, Zone of skin; conditions: read-out: Drug metabolism
[29] = Drug metabolism in rat skin homogenate assessed as compound remaining after 4 hrs by HPLC analysis; format: ADME, tissue-based, Zone of skin; conditions: read-out: Drug metabolism
[30] = Drug metabolism in rat skin homogenate assessed as compound remaining after 8 hrs by HPLC analysis; format: ADME, tissue-based, Zone of skin; conditions: read-out: Drug metabolism
[31] = Drug metabolism in rat skin homogenate assessed as compound remaining after 16 hrs by HPLC analysis; format: ADME, tissue-based, Zone of skin; conditions: read-out: Drug metabolism
[32] = Drug metabolism in rat skin homogenate assessed as compound remaining after 24 hrs by HPLC analysis; format: ADME, tissue-based, Zone of skin; conditions: read-out: Drug metabolism
[33] = Drug metabolism in rat skin homogenate assessed as compound remaining after 0 mins by HPLC analysis; format: ADME, tissue-based, Zone of skin; conditions: read-out: Drug metabolism

Chain of Steroid 5-alpha-reductase (Homo sapiens) (P18405 whole entry, looked up): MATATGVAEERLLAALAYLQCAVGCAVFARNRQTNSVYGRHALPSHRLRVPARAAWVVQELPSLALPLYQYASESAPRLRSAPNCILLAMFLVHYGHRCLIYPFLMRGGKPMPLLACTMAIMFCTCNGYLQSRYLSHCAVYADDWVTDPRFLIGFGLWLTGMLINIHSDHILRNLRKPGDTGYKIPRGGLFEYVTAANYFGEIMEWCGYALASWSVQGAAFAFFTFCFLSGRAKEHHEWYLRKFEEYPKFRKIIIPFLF
Chain of Steroid 5-alpha-reductase (Homo sapiens) (P31213 whole entry, looked up): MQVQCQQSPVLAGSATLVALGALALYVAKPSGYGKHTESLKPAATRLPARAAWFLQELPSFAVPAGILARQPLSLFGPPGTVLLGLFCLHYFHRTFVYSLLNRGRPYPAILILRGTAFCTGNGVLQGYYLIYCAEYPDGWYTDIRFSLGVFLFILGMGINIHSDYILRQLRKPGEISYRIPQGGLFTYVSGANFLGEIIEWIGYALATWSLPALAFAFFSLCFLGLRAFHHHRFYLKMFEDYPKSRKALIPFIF
Chain of Steroid 5-alpha-reductase (Homo sapiens) (Q9H8P0 whole entry, looked up): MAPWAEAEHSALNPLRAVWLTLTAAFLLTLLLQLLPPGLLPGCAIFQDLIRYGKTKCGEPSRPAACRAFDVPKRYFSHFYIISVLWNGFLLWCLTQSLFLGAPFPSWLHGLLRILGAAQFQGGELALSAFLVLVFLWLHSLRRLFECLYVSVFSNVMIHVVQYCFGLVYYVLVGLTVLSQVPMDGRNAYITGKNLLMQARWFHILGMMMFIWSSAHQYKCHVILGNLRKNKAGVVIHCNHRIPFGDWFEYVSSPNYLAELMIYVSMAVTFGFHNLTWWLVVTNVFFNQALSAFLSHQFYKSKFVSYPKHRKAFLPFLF

Drug metabolism (Plasma): metabolite_detected
SMILES: CCC(=O)OCC(=O)[C@@]1(O)CC[C@H]2[C@@H]3CCC4=CC(=O)CC[C@]4(C)[C@H]3CC[C@@]21C
inhibition (INH) (Syrian golden hamster [1]): 29%

SMILES: CCC(=O)OCC(=O)[C@@]1(OC(=O)CC)CC[C@H]2[C@@H]3CCC4=CC(=O)CC[C@]4(C)[C@H]3CC[C@@]21C
inhibition (INH) (Syrian golden hamster [1]): 57%

SMILES: CCCC(=O)O[C@]1(C(=O)CO)CC[C@H]2[C@@H]3CCC4=CC(=O)CC[C@]4(C)C3=CC[C@@]21C
inhibition (INH) (Syrian golden hamster [1]): 85%

inhibition [4]: inactive
IC50 (Androgen receptor): 50 nM
Ki (Androgen receptor): 40 nM
remaining at 0 h [10]: 100%
remaining at 5 min [11]: 90%
remaining at 0.25 h [12]: 90%
remaining at 0.5 h [13]: 80%
remaining at 1 h [14]: 60%
remaining at 2 h [15]: 50%
remaining at 4 h [16]: 20%
remaining at 8 h [17]: 0%
remaining at 0.5 h [18]: 93.2%
remaining at 1 h [19]: 85.2%
remaining at 2 h [20]: 67.2%
remaining at 4 h [21]: 30.3%
remaining at 6 h [22]: 11.3%
remaining at 0 h [23]: 99.6%
remaining at 5 min [24]: 99%
remaining at 0.25 h [25]: 99%
remaining at 0.5 h [26]: 98.5%
remaining at 1 h [27]: 89.5%
remaining at 2 h [28]: 69.5%
remaining at 4 h [29]: 59.5%
remaining at 8 h [30]: 49.5%
remaining at 16 h [31]: 44.8%
remaining at 24 h [32]: 44.8%
remaining at 0 h [33]: 99%
SMILES: CCC(=O)O[C@]1(C(=O)CO)CC[C@H]2[C@@H]3CCC4=CC(=O)CC[C@]4(C)[C@H]3CC[C@@]21C [CLASCOTERONE]
inhibition (INH) (Syrian golden hamster [1]): 84%
inhibition (INH) (Syrian golden hamster [2]): 40%
inhibition (INH) (Syrian golden hamster [3]): 78%
Activity (Rattus norvegicus [5]): inactive
Activity (Rattus norvegicus [6]): inactive
Activity (Rattus norvegicus [7]): inactive
inhibition (Rattus norvegicus [8]): Active
inhibition (Rattus norvegicus [9]): Active

SMILES: C[C@]12CCC(=O)C=C1CC[C@@H]1[C@@H]2CC[C@@]2(C)[C@H]1CC[C@]2(O)C(=O)CO [CORTODOXONE]
inhibition (INH) (Syrian golden hamster [1]): 0%

SMILES: CC(=O)O[C@]1(C(C)=O)CC[C@H]2[C@@H]3C=C(Cl)C4=CC(=O)[C@@H]5C[C@@H]5[C@]4(C)[C@H]3CC[C@@]21C [CYPROTERONE ACETATE]
inhibition (INH) (Syrian golden hamster [1]): 93%

SMILES: CC(C)(C)NC(=O)[C@H]1CC[C@H]2[C@@H]3CC[C@H]4NC(=O)C=C[C@]4(C)[C@H]3CC[C@]12C [FINASTERIDE]
inhibition (INH) (Syrian golden hamster [1]): 71%
